# From PubChem BioAssay AID1963845 (Molecular Pharmacology Branch, DTP, NCI, 2024)
# System: 429239-143-T-J1-PDC complex spheroid viability
# Experiment: Anticancer human tumor 429239-143-T-J1-PDC patient-derived small cell lung carcinoma cell line growth inhibition [POLQ]
# Conditions: for IC50: curve of first compound; for viability, T/C: stronger effect = lower value
# Description: Multicellular complex tumor spheroid response to Polymerase (POL) inhibitors (novobiocin, ART-558, RP6685) in combination with a variety of drugs and investigational agents in selected tumor cell lines
# The POL inhibitors (novobiocin, ART-558, and RP6685) were evaluated both individually and in combination with standard of care and investigational anticancer small molecules within a complex spheroid model of solid tumors. . Complex spheroids include a stromal component modeled by human endothelial cells (HUVEC) and fibroblasts modeled by human mesenchymal stem cells (MSCs). The concentration ranges selected for each drug and investigational agent were based upon clinically achievable concentrations if the clinical Cmax of the agent was known.
# Compounds. The drugs and investigational agents: novobiocin (NSC847541), ART-558 (NSC835418), RP-6685 (NSC848927), peposertib (NSC802822), ceralasertib (NSC780249), elimusertib (NSC800525), camonsertib (NSC841442), AZD-1390 (NSC803789), olaparib (NSC753686), talazoparib (NSC767125), rucaparib (NSC756644), sotorasib (NSC818433), MRTX-1133 (NSC836407), SN-38 (NSC673596), topotecan (NSC609699), epotoside (NSC141540), doxorubicin (NSC123127), gemcitabine (NSC613327), 5-fluorouracil (NSC19893), paclitaxel (NSC125973), vemurafenib (NSC761431), MSA-2 (NSC828583), SN-011 (NSC837082), adavosertib (NSC754352), prexasertib (NSC758257), carboplatin (NSC241240) and oxaliplatin (NSC266046), were obtained from the National Cancer Institute (NCI) Developmental Therapeutics Program Chemical Repository (21). The FDA-approved anticancer drug set is available from the Developmental Therapeutics Program at https://dtp.cancer.gov/organization/dscb/obtaining/. […] The stock solutions were prepared in dimethyl sulfoxide (DMSO, Sigma-Aldrich, St. Louis, MO, cat. D2650), except for the platinum compounds which were prepared in saline (Quality Biological, Gaithersburg, MD, cat. 114-055-101), at 800-fold the tested concentration and stored at -70 degrees C prior to their use. All drugs and investigational agents were tested over a range starting from a high concentration at or near the clinical Cmax and decreasing in half-log increments. If the clinical Cmax for an agent had not been determined, the highest concentration tested was 10 microM, except for SN-38, which was tested at a high concentration of 1 microM.
# Cell Culture. All cells were maintained in an incubator at 37 degrees C and 5% CO2 with 95% humidity. The PDC lines were cultured according to standard operating procedures established by the NCI PDMR (https://pdmr.cancer.gov). Table 3 of the manuscript, lists the cell lines along with the number of the three cell types plated to form the mct-spheroids and media for tumor cell growth. After thawing, all PDC lines, except 997537-175-T-J1-PDC and 415267-285-R-J2-PDC, were cultured in Matrigel-coated flasks prepared with a working solution of 1X Ham's F-12 nutrient mix, without supplementation (Thermo Fisher Scientific, cat. 11765054), 100 U/mL penicillin-streptomycin (Thermo Fisher Scientific, cat. 15140122), and 2.5% Matrigel (Corning Inc., Corning, NY, cat. 354248) for the first three passages. The two PDC lines 997537-175-T-J1-PDC and 415267-285-R-J2-PDC were cultured on uncoated flasks. The 857933-349-R-J2-PDC line was cultured in 6C/Colon 1B media containing advanced DMEM/F-12 (Thermo Fisher Scientific, cat. 12634028), 10 mM HEPES (Thermo Fisher Scientific, cat. 15630080), 1X GlutaMAX supplement (Thermo Fisher Scientific, cat. 35050061), 0.1 mg/mL primocin (InvivoGen, San Diego, CA, cat. ant-pm-2), 10% defined fetal bovine serum, heat inactivated (HyClone Laboratories Inc., Logan, UT, cat. SH30070.03HI), 50% L-WRN conditioned media (ATCC, cat. CRL-3276), 1.25 mM N-Acetyl-L-cysteine (Sigma-Aldrich, cat. A9165), 10 mM nicotinamide (Sigma-Aldrich, cat. N0636), 1X B-27 supplement (Thermo Fisher Scientific, cat. 17504044), 1X N-2 supplement (Thermo Fisher Scientific, cat. […]
# [1] = second compound 0.0316 µM, first compound 0.0316 µM
# [2] = second compound 0.0316 µM, first compound 0.1 µM
# [3] = second compound 0.0316 µM, first compound 0.316 µM
# [4] = second compound 0.0316 µM, first compound 1 µM
# [5] = second compound 0.0316 µM, first compound 3.16 µM
# [6] = second compound 0.0316 µM, first compound 10 µM
# [7] = second compound 0.1 µM, first compound 0.0316 µM
# [8] = second compound 0.1 µM, first compound 0.1 µM
# [9] = second compound 0.1 µM, first compound 0.316 µM
# [10] = second compound 0.1 µM, first compound 1 µM
# [11] = second compound 0.1 µM, first compound 3.16 µM
# [12] = second compound 0.1 µM, first compound 10 µM
# [13] = second compound 0.316 µM, first compound 0.0316 µM
# [14] = second compound 0.316 µM, first compound 0.1 µM
# [15] = second compound 0.316 µM, first compound 0.316 µM
# [16] = second compound 0.316 µM, first compound 1 µM
# [17] = second compound 0.316 µM, first compound 3.16 µM
# [18] = second compound 0.316 µM, first compound 10 µM
# [19] = second compound 1 µM, first compound 0.0316 µM
# [20] = second compound 1 µM, first compound 0.1 µM
# [21] = second compound 1 µM, first compound 0.316 µM
# [22] = second compound 1 µM, first compound 1 µM
# [23] = second compound 1 µM, first compound 3.16 µM
# [24] = second compound 1 µM, first compound 10 µM
# [25] = second compound 3.16 µM, first compound 0.0316 µM
# [26] = second compound 3.16 µM, first compound 0.1 µM
# [27] = second compound 3.16 µM, first compound 0.316 µM
# [28] = second compound 3.16 µM, first compound 1 µM
# [29] = second compound 3.16 µM, first compound 3.16 µM
# [30] = second compound 3.16 µM, first compound 10 µM
# [31] = second compound 10 µM, first compound 0.0316 µM
# [32] = second compound 10 µM, first compound 0.1 µM
# [33] = second compound 10 µM, first compound 0.316 µM
# [34] = second compound 10 µM, first compound 1 µM
# [35] = second compound 10 µM, first compound 3.16 µM
# [36] = second compound 10 µM, first compound 10 µM
# 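Also: luminescence signal used as surrogate measure of viable cells; spheroids exposed to compounds for seven days before readout.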
# 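For viability, T/C in this document: 100% = DMSO vehicle control viability as luminescence relative to vehicle.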
structure (smiles),measurement,setting,value
O=C(c1cc(Cc2n[nH]c(=O)c3ccccc23)ccc1F)N1CCN(C(=O)C2CC2)CC1 + Cc1cccc(N(C)C(=O)C2C(O)CCN2c2nc(C)cc(C(F)(F)F)c2C#N)c1,IC50,second compound 0.0316 µM,1570 nM
same,IC50,second compound 0.1 µM,1460 nM
same,IC50,second compound 0.316 µM,1650 nM
same,IC50,second compound 1 µM,1750 nM
same,IC50,second compound 3.16 µM,1880 nM
same,IC50,second compound 10 µM,1500 nM
same,"viability, T/C",[1],104%
same,"viability, T/C",[2],84.5%
same,"viability, T/C",[3],82.9%
same,"viability, T/C",[4],65.4%
same,"viability, T/C",[5],28.9%
same,"viability, T/C",[6],19.9%
same,"viability, T/C",[7],85.1%
same,"viability, T/C",[8],81.3%
same,"viability, T/C",[9],78%
same,"viability, T/C",[10],55.8%
same,"viability, T/C",[11],35.3%
same,"viability, T/C",[12],17.9%
same,"viability, T/C",[13],94.2%
same,"viability, T/C",[14],82.5%
same,"viability, T/C",[15],81.9%
same,"viability, T/C",[16],61.3%
same,"viability, T/C",[17],35%
same,"viability, T/C",[18],18.7%
same,"viability, T/C",[19],83.5%
same,"viability, T/C",[20],78.9%
same,"viability, T/C",[21],80.6%
same,"viability, T/C",[22],63.4%
same,"viability, T/C",[23],35.5%
same,"viability, T/C",[24],18.6%
same,"viability, T/C",[25],92.6%
same,"viability, T/C",[26],78.7%
same,"viability, T/C",[27],81.5%
same,"viability, T/C",[28],66.3%
same,"viability, T/C",[29],36.5%
same,"viability, T/C",[30],21%
same,"viability, T/C",[31],89.5%
same,"viability, T/C",[32],91.9%
same,"viability, T/C",[33],70.9%
same,"viability, T/C",[34],58.2%
same,"viability, T/C",[35],37%
same,"viability, T/C",[36],18.7%
O=C(c1cc(Cc2n[nH]c(=O)c3ccccc23)ccc1F)N1CCN(C(=O)C2CC2)CC1 + COC1C(OC(N)=O)C(O)C(Oc2ccc3c(O)c(NC(=O)c4ccc(O)c(CC=C(C)C)c4)c(=O)oc3c2C)OC1(C)C,IC50,second compound 0.0316 µM,1940 nM
same,IC50,second compound 0.1 µM,1960 nM
same,IC50,second compound 0.316 µM,1700 nM
same,IC50,second compound 1 µM,1970 nM
same,IC50,second compound 3.16 µM,1700 nM
same,IC50,second compound 10 µM,1360 nM
same,"viability, T/C",[1],97.2%
same,"viability, T/C",[2],80.8%
same,"viability, T/C",[3],79.1%
same,"viability, T/C",[4],82.3%
same,"viability, T/C",[5],26.2%
same,"viability, T/C",[6],16.1%
same,"viability, T/C",[7],82.7%
same,"viability, T/C",[8],88.6%
same,"viability, T/C",[9],77.8%
same,"viability, T/C",[10],74.3%
same,"viability, T/C",[11],32.9%
same,"viability, T/C",[12],18.2%
same,"viability, T/C",[13],103%
same,"viability, T/C",[14],97.2%
same,"viability, T/C",[15],86.8%
same,"viability, T/C",[16],68.9%
same,"viability, T/C",[17],28.9%
same,"viability, T/C",[18],18.2%
same,"viability, T/C",[19],104%
same,"viability, T/C",[20],87.5%
same,"viability, T/C",[21],81.2%
same,"viability, T/C",[22],78.5%
same,"viability, T/C",[23],30.4%
same,"viability, T/C",[24],17.6%
same,"viability, T/C",[25],97.3%
same,"viability, T/C",[26],86.5%
same,"viability, T/C",[27],73.8%
same,"viability, T/C",[28],71.6%
same,"viability, T/C",[29],29.2%
same,"viability, T/C",[30],19%
same,"viability, T/C",[31],106%
same,"viability, T/C",[32],99.6%
same,"viability, T/C",[33],86.9%
same,"viability, T/C",[34],60.7%
same,"viability, T/C",[35],24.8%
same,"viability, T/C",[36],16.4%
